Source: ChEMBL document CHEMBL1122200, “Novel opiates and antagonists. 5. 7-Carbethoxy-N-(cycloalkylmethyl)-3-hydroxymorphinan-6-ones and -isomorphinan-6-ones” (1982)

What was measured:
Mus musculus = test: Analgesic activity by mouse writhing test after subcutaneous injection.; assay type: functional
Rattus norvegicus = test: Narcotic antagonist activity was measured by rat tail flick procedure after the drug was injected intraperitoneally; assay type: functional
[1] = Mus musculus, sc, read-out: ED50

| SMILES | ED50 (Mus musculus) [mg/kg] | AD50 (Rattus norvegicus) [mg/kg] | ED50 (Mus musculus; [1]) [mg/kg] |
| --- | --- | --- | --- |
| O=C1CCC2C3Cc4ccc(O)cc4C2(CCN3CC2CC2)C1 (stereo in doubt; 9Ca) | 1.02 | 2.3 | – |
| CCOC(=O)[C@@H]1CC2C3Cc4ccc(OC)cc4C2(CCN3CC2CCC2)CC1=O (some centres not stated) | – | >3 | > 10 |
| CCOC(=O)[C@@H]1CC2C3Cc4ccc(O)cc4C2(CCN3CC2CCC2)CC1=O (some centres not stated) | – | >10 | – |
| O=C1CCC2C3Cc4ccc(O)cc4C2(CCN3CC2CC2)C1 (trans isomer) | >10 | 0.78 | – |
| CCOC(=O)[C@@H]1CC2C3Cc4ccc(O)cc4C2(CCN3C)CC1=O (some centres not stated) | – | – | 0.72 |
| O=C1CCC2C3Cc4ccc(O)cc4C2(CCN3CC2CCC2)C1 (cis isomer) | – | >10 | 0.017 |
| CCOC(=O)[C@@H]1CC2C3Cc4ccc(OC)cc4C2(CCN3CC2CC2)CC1=O (some centres not stated) | – | >3 | > 10 |
| CN1CCC23CC(=O)CC[C@@H]2C1Cc1ccc(O)cc13 (some centres not stated) | – | – | 0.23 |
| CCOC(=O)[C@H]1CC2C3Cc4ccc(OC)cc4C2(CCN3CC2CC2)CC1=O (some centres not stated) | – | >10 | > 10 |
| CCOC(=O)[C@@H]1CC2C3Cc4ccc(O)cc4C2(CCN3CC2CC2)CC1=O (some centres not stated) | – | – | 4.9 |
| CCOC(=O)[C@@H]1CC2C3Cc4ccc(OC)cc4C2(CCN3C)CC1=O (some centres not stated) | – | – | 4.6 |
| C=CCN1CC[C@]23c4c5ccc(O)c4O[C@H]2[C@@H](O)C=C[C@H]3[C@H]1C5 [NALORPHINE] | – | 0.86 | – |
| COc1ccc2c(c1)C13CCN(C)C(C2)[C@@H]1CCC(=O)C3 (some centres not stated) | – | – | 0.49 |
| COc1ccc2c(c1)C13CCN(CC4CC4)C(C2)C1CCC(=O)C3 (stereo in doubt; 5Cc) | 0.24 | >3 | – |
| COc1ccc2c(c1)C13CCN(CC4CCC4)C(C2)C1CCC(=O)C3 (stereo in doubt; 5Cd) | 0.22 | >10 | – |
| COc1ccc2c(c1)C13CCN(C)C(C2)[C@H]1CCC(=O)C3 (some centres not stated) | – | – | 1.58 |
| CC(C)(O)[C@@H]1CC2C3Cc4ccc(O)cc4C2(CCN3CC2CC2)C[C@@H]1O (some centres not stated) | – | >10 | 6.9 |
| COc1ccc2c(c1)C13CCN(CC4CC4)C(C2)C1CCC(=O)C3 (trans isomer) | >10 | 1.3 | – |
| CN1CCC23CC(=O)CC[C@H]2C1Cc1ccc(O)cc13 (some centres not stated) | – | – | 0.15 |
| CN1CC[C@]23c4c5ccc(O)c4O[C@H]2[C@@H](O)C=C[C@H]3[C@H]1C5.CN1CC[C@]23c4c5ccc(O)c4O[C@H]2[C@@H](O)C=C[C@H]3[C@H]1C5.O=S(=O)(O)O | – | – | 0.8 |
| CC(C)=CCN1CC[C@]2(C)c3cc(O)ccc3C[C@H]1[C@H]2C [(+)-PENTAZOCINE] | – | 10.4 | 3.7 |
| CC(C)(O)[C@H]1CC2C3Cc4ccc(O)cc4C2(CCN3CC2CC2)C[C@H]1O (some centres not stated) | – | >10 | > 10 |
| CCOC(=O)[C@H]1CC2C3Cc4ccc(O)cc4C2(CCN3C)CC1=O (some centres not stated) | – | – | 0.6 |
| COc1ccc2c(c1)C13CCN(CC4CCC4)C(C2)C1CCC(=O)C3 (trans isomer) | 6.9 | – | – |
| CCOC(=O)[C@H]1CC2C3Cc4ccc(OC)cc4C2(CCN3C)CC1=O (some centres not stated) | – | – | > 10 |
